Literature values as cited in patent publication US8551985B2, “Carbinol derivatives having heterocyclic linker” (Kowa Company, Ltd., priority 2009, dated 2013).

Molecular target: T1, LXRβ (Homo sapiens, UniProt P55055)
T1 sequence (P55055 1-460): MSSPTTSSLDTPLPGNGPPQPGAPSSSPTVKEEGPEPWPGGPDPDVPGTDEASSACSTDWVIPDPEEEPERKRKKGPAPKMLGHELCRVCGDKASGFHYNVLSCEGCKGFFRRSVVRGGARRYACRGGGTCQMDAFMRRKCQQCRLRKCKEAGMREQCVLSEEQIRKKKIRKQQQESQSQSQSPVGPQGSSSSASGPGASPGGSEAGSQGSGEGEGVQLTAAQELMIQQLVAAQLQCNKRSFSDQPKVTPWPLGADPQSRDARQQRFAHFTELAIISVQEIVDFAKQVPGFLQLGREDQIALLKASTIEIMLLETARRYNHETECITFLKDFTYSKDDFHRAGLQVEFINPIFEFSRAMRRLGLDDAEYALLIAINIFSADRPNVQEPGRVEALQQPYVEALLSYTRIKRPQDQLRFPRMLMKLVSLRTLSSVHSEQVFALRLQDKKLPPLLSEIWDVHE

O=C(O)Cc1ccc(COc2cccc(-c3c(Cc4ccccc4)cnc4c(C(F)(F)F)cccc34)c2)cc1 [WAY-254011]
LXRβ-selective binding affinity (α/β ratio): 1 to 5
